The numbers were not newly measured in patent US11642308B2, “Ready to use liquid formulation” (priority 2020, dated 2023), which cites them from elsewhere.

SMILES strings stand for the structures.

The conditions of the data set: ≈25° C. and ≈1 bar.

For `O=O` [oxygen], the solubility in water result is listed as “about 40 mg/L”.
